The target in one test is T1, α4β1 (Homo sapiens, UniProt P05556+P13612).
T1 construct: Ramos Cell Adhesion Assay (α4β1 Mediated Adhesion/VCAM-1); endogenous in cells; host or cells: Ramos cells
The test is described as follows: Ramos Cell Adhesion Assay (α4β1 Mediated Adhesion/VCAM-1). As to conditions: Ramos cell adhesion to hVCAM-1; read-out: α4β1 IC50. In kind it is cell-based. As to the method: Ramos Cell Adhesion Assay (α4β1 Mediated Adhesion/VCAM-1)
Immulon 96 well plates (Dynex) were coated with 100 μL recombinant hVCAM-1 at 4.0 μg/mL in 0.05 M NaCO3 buffer pH 9.0 overnight at 4° C. (R&D Systems). Plates were washed 2 times in PBS with 1% BSA and blocked for 1 h @ room temperature in this buffer. PBS was removed and compounds to be tested (50 μL) were added at 2× concentration. Ramos cells, (50 μL at 2×10^6/mL) labeled with 5 μM Calcein AM (Molecular Probes) for 1 h at 37° C., were added to each well and allowed to adhere for 1 h at room temperature. Plates were washed 4× in PBS+1% BSA and cells were lysed for 15 minutes in 100 μL of 1 M Tris pH 8.0 with 1% SDS.

For another test, the target named is T2, human α4β7 integrin (Homo sapiens, UniProt P13612+P26010).
T2 construct: expressed in transfected cells; host or cells: K562 cells, stably transfected
T2 sequence (P13612 34-1032): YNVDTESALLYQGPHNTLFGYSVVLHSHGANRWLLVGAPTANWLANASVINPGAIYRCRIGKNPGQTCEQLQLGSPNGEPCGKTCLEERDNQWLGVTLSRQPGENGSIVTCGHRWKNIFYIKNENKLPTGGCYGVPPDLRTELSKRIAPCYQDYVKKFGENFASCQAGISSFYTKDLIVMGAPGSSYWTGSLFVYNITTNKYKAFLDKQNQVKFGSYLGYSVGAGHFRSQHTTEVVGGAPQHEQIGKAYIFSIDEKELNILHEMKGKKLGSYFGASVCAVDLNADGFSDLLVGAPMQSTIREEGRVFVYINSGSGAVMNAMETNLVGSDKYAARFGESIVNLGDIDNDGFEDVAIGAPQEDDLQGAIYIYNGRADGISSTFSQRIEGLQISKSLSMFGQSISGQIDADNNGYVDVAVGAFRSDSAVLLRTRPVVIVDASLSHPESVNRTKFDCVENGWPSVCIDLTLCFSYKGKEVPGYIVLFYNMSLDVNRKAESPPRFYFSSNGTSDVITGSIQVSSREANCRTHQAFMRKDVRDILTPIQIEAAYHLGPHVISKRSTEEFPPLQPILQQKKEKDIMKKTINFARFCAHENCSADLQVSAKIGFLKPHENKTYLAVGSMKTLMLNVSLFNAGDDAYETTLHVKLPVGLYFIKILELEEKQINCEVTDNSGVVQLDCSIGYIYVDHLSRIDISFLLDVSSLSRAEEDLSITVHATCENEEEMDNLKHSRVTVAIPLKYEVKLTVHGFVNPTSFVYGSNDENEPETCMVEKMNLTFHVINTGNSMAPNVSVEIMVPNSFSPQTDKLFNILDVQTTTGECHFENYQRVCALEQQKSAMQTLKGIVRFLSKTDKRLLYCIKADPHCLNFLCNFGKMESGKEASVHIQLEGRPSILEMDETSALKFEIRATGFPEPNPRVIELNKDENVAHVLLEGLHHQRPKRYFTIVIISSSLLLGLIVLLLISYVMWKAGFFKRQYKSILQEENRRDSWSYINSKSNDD
T2 sequence (P26010 20-798): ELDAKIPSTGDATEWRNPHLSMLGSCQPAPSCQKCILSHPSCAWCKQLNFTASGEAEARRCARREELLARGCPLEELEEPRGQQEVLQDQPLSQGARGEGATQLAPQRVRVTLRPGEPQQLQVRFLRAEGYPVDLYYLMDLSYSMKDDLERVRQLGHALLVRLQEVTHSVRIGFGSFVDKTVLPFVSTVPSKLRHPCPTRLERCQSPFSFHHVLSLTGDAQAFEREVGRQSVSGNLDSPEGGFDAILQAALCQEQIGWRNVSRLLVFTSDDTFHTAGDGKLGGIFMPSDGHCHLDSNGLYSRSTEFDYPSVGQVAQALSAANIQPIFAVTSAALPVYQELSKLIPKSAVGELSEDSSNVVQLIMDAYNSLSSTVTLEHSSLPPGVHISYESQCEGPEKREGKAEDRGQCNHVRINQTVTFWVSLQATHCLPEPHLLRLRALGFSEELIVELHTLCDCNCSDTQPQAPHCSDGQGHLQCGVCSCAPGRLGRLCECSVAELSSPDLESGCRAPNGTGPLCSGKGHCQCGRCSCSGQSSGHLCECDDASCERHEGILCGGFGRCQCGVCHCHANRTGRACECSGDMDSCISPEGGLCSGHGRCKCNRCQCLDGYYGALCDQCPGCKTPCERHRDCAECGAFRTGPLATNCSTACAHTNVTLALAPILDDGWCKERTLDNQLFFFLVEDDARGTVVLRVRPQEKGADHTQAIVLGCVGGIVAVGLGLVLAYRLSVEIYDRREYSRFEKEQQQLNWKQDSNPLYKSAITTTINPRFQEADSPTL
The test is described as follows: α4β7-K562 Cell Adhesion Assay (α4β7 Mediated Adhesion/MAdCAM-1). As to conditions: α4β7-K562 cell adhesion to hMAdCAM-1; read-out: α4β7 IC50. In kind it is cell-based. As to the method:
α4β7-K562 Cell Adhesion Assay (α4β7 Mediated Adhesion/MAdCAM-1)
M2 anti-FLAG Antibody Coated 96-well plates (Sigma) were coated for 1 hour at 4° C. with 2-8 μl/well recombinant FLAG-hMAdCAM-1 contained in 100 μL of Dulbecco's PBS, pH 7.4, with 1% BSA and 1 mM Mn ^+2 (PBS-BSA-Mn). Plates were washed once with PBS-BSA-Mn. Buffer was removed and compounds to be tested (50 μL) were added at 2× concentration. Stably transfected K562 cells expressing human α4β7 integrin, (50 μL at 2×10^6/mL) that had been labeled with 100 μg/ml carboxymethyl fluorescein diacetate succinimidyl ester (CFDA-SE; Molecular Probes) for 15 min at 37° C. were added to each well and allowed to adhere for 1 h at room temperature. Plates were washed 4× in PBS-BSA-Mn and then cells were lysed for 2 minutes by addtion of 100 μL of PBS without Ca, Mg supplemented with 0.1 M NaOH.

Where only a bound is given, the exact number is not on record here.

T1 sequence (P05556 21-798, one chain of several): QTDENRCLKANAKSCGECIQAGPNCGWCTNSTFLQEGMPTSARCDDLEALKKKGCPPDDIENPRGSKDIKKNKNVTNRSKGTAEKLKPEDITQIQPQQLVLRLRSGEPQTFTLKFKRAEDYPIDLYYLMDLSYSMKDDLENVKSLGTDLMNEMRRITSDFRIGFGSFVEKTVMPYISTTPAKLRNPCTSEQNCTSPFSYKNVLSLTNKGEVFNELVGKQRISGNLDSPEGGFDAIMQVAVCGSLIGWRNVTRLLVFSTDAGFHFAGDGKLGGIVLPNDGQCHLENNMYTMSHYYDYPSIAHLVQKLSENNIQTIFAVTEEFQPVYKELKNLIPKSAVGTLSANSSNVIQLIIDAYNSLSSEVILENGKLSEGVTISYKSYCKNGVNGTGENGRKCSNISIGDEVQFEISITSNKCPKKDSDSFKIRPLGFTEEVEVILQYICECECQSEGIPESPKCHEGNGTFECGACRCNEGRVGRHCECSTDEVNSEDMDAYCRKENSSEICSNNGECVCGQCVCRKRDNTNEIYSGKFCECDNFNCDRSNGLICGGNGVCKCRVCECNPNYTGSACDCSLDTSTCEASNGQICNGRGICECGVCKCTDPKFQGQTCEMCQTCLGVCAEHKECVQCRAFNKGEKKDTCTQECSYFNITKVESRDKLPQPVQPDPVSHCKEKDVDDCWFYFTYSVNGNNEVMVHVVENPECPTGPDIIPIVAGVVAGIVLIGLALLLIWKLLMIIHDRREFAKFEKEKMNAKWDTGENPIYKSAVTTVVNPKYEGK

With `Cn1ncc(OCc2cccnc2)c(-c2ccc(C[C@H](NC(=O)c3c(Cl)cccc3Cl)C(=O)O)cc2)c1=O` [Cpd 25], the IC50 at α4β1 amounted to 133 nM; at human α4β7 integrin it was 5 nM.

On to `COc1cnn(C)c(=O)c1-c1ccc(C[C@H](NC(=O)[C@H](NC2CCCCC2)C(C)C)C(=O)O)cc1` [Cpd 28], for which the results for the 50% inhibitory concentration (IC50) at α4β1 and at human α4β7 integrin were 2620 nM and 5 nM, respectively.

As to `CCn1ncc(N2CCOCC2)c(-c2ccc(C[C@H](NC(=O)c3c(Cl)cccc3Cl)C(=O)O)cc2)c1=O` [Cpd 29], the IC50 at α4β1 was over 1000 nM; at human α4β7 integrin, 6 nM.

`COc1cnn(C)c(=O)c1-c1ccc(C[C@H](NC(=O)c2c(Cl)cccc2Cl)C(=O)OCCN(C)C)cc1` [Cpd 34]: the concentration for half-maximal inhibition (IC50) on α4β1 came to 250 nM; on human α4β7 integrin, 8 nM.

Regarding `C=CCNc1cnn(CC(C)=O)c(=O)c1-c1ccc(C[C@H](NC(=O)c2c(Cl)cccc2Cl)C(=O)O)cc1` [Cpd 36], the IC50 on α4β1 was determined as 1310 nM; at human α4β7 integrin it was 9 nM.

Take `Cn1ncc(OCC(F)(F)F)c(-c2ccc(C[C@H](NC(=O)c3c(Cl)cccc3Cl)C(=O)O)cc2)c1=O` [Cpd 37]: the IC50 on α4β1 was 474 nM; on human α4β7 integrin it was 9 nM.

For the compound `COc1cnn(C)c(=O)c1-c1ccc(C[C@H](NC(=O)C2(C(N)=O)CC2)C(=O)O)cc1` [Cpd 38], the half-inhibitory concentration (IC50) is over 5000 nM at α4β1 and 9 nM at human α4β7 integrin.

Consider `COc1cnn(CC(F)(F)F)c(=O)c1-c1ccc(C[C@H](NC(=O)c2c(Cl)cccc2Cl)C(=O)O)cc1` [Cpd 39], for which the IC50 at α4β1 turned out to be 588 nM; at human α4β7 integrin, 10 nM.

Regarding `COc1cnn(C)c(=O)c1-c1ccc(C[C@H](NC(=O)C2(NC3CCCCC3)CC2)C(=O)O)cc1` [Cpd 40], the figures for the IC50 at α4β1 and at human α4β7 integrin were over 5000 nM and 38 nM, respectively.

On to `Cn1ncc(OC2CCCCC2)c(-c2ccc(C[C@H](NC(=O)c3c(Cl)cccc3Cl)C(=O)O)cc2)c1=O` [Cpd 41], for which the IC50 is 152 nM at α4β1 and 11 nM on human α4β7 integrin.

As for `COc1cnn(C)c(=O)c1-c1ccc(C[C@H](NC(=O)C2(NC(C)C)CCOCC2)C(=O)O)cc1` [Cpd 42], the values for the IC50 on α4β1 and on human α4β7 integrin were 936 nM and 59 nM, respectively.

As to `O=C(N[C@@H](Cc1ccc(-c2c(OC3CCCC3)cnn(CCO)c2=O)cc1)C(=O)O)c1c(Cl)cccc1Cl` [Cpd 43], the IC50 on α4β1 came to 437 nM; on human α4β7 integrin, 12 nM.

In the case of `COc1cnn(C)c(=O)c1-c1ccc(C[C@H](NC(=O)[C@H](C(C)C)N(C)C(=O)OC(C)(C)C)C(=O)O)cc1` [Cpd 48], the concentration for half-maximal inhibition (IC50) on α4β1 turned out to be 974 nM; on human α4β7 integrin, 13 nM.

`Cn1ncc(Cl)c(-c2ccc(C[C@H](NC(=O)c3c(Cl)cccc3Cl)C(=O)O)cc2)c1=O` [Cpd 49]: the figures for the 50% inhibitory concentration (IC50) at α4β1 and on human α4β7 integrin were 486 nM and 14 nM, respectively.

With `COc1cnn(C)c(=O)c1-c1ccc(C[C@H](NC(=O)[C@@H](C)N(C)C(=O)Cc2ccsc2)C(=O)O)cc1` [Cpd 50], the IC50 was 229 nM on α4β1 and 14 nM at human α4β7 integrin.

As for `Cn1ncc(N2CCCC2)c(-c2ccc(C[C@H](NC(=O)c3c(Cl)cccc3Cl)C(=O)O)cc2)c1=O` [Cpd 51], the IC50 at α4β1 was found to be 113 nM; at human α4β7 integrin, 16 nM.

As for `Cn1ncc(OCc2ccccc2)c(-c2ccc(C[C@H](NC(=O)c3c(Cl)cccc3Cl)C(=O)O)cc2)c1=O` [Cpd 52], the concentration for half-maximal inhibition (IC50) on α4β1 came to 663 nM; on human α4β7 integrin it was 17 nM.

Turning to `O=C(N[C@@H](Cc1ccc(-c2c(OC3CCC3)cnn(CCO)c2=O)cc1)C(=O)O)c1c(Cl)cccc1Cl` [Cpd 53], the IC50 at α4β1 came to 269 nM; on human α4β7 integrin, 17 nM.

Regarding `COc1cnn(-c2ccccc2)c(=O)c1-c1ccc(C[C@H](NC(=O)c2c(Cl)cccc2Cl)C(=O)O)cc1` [Cpd 56], the values for the IC50 on α4β1 and at human α4β7 integrin were 3860 nM and 18 nM, respectively.

`Cn1ncc(OC2CCCC2)c(-c2ccc(C[C@H](NC(=O)c3c(Cl)cccc3Cl)C(=O)O)cc2)c1=O` [Cpd 60]: the concentration for half-maximal inhibition (IC50) at α4β1 was found to be 155 nM; at human α4β7 integrin it was 20 nM.

`Cn1ncc(O)c(-c2ccc(C[C@H](NC(=O)c3c(Cl)cncc3Cl)C(=O)O)cc2)c1=O` [Cpd 62]: the IC50 at α4β1 came to 40 nM; on human α4β7 integrin, 21 nM.

Take `CS(=O)(=O)c1ccc(-c2cnn(CC3CC3)c(=O)c2-c2ccc(C[C@H](NC(=O)c3c(Cl)cccc3Cl)C(=O)O)cc2)cc1` [Cpd 65]: the values for the 50% inhibitory concentration (IC50) on α4β1 and on human α4β7 integrin were 4220 nM and 21 nM, respectively.

Consider `CN[C@H](C(=O)N[C@@H](Cc1ccc(-c2c(OC)cnn(C)c2=O)cc1)C(=O)O)[C@@H](C)OCc1ccccc1` [Cpd 68], for which the IC50 on α4β1 came to 473 nM; on human α4β7 integrin it was 24 nM.

As to `CN1CCC(Oc2cnn(CCO)c(=O)c2-c2ccc(C[C@H](NC(=O)c3c(Cl)cccc3Cl)C(=O)O)cc2)C1` (stereo partly drawn) [Cpd 72], the 50% inhibitory concentration (IC50) worked out at 190 nM on α4β1 and 26 nM at human α4β7 integrin.

In the case of `CC(C)Oc1cnn(C)c(=O)c1-c1ccc(C[C@H](NC(=O)c2c(Cl)cccc2Cl)C(=O)O)cc1` [Cpd 74], the concentration for half-maximal inhibition (IC50) at α4β1 was 135 nM; at human α4β7 integrin it was 27 nM.

Turning to `COc1cnn(C)c(=O)c1-c1ccc(C[C@H](NC(=O)c2c(Cl)cccc2Cl)C(=O)OCCCl)cc1` [Cpd 75], the IC50 was over 5000 nM at α4β1 and 28 nM at human α4β7 integrin.

For the compound `CSc1cnn(C(C)(C)C)c(=O)c1-c1ccc(C[C@H](NC(=O)c2c(Cl)cccc2Cl)C(=O)O)cc1` [Cpd 78], the IC50 on α4β1 is 5610 nM; at human α4β7 integrin, 36 nM.

As for `COc1cnn(C)c(=O)c1-c1ccc(C[C@H](NC(=O)C2(n3c(C)ccc3C)CC2)C(=O)O)cc1` [Cpd 80], the IC50 is over 5000 nM on α4β1 and 228 nM at human α4β7 integrin.

Regarding `COc1cnn(C)c(=O)c1-c1ccc(C[C@H](NC(=O)[C@H](NC(=O)OC(C)(C)C)C(C)C)C(=O)O)cc1` [Cpd 81, (R)-2-(2-tert-Butoxycarbonylamino-3-methyl-butyrylamino)-3-(S)-[4-(5-methoxy-2-methyl-3-oxo-2,3-dihydro-pyridazin-4-yl)-phenyl]-propionic acid], the results for the 50% inhibitory concentration (IC50) at α4β1 and on human α4β7 integrin were 987 nM and 39 nM, respectively.

As to `COc1cn[nH]c(=O)c1-c1ccc(C[C@H](NC(=O)c2c(Cl)cccc2Cl)C(=O)O)cc1` [Cpd 83], the 50% inhibitory concentration (IC50) came to 1020 nM on α4β1 and 41 nM at human α4β7 integrin.

A word on the IC50: it is the point on the concentration scale where inhibition reaches its midpoint.

The record behind these values is patent US20050192279A1, “Pyridazinones as antagonists of alpha4 integrins” (priority 2004, published 2005).
